Test results: patent publication US20250024871A1, “AMIDE COMPOUNDS AND THEIR USE AS FLAVOR MODIFIERS” (Firmenich Incorporated, priority 2021, published 2025)

Target: T1, T1R umami taste receptor (Homo sapiens, UniProt Q7RTX0+Q7RTX1)
T1 sequence (Q7RTX1 21-841): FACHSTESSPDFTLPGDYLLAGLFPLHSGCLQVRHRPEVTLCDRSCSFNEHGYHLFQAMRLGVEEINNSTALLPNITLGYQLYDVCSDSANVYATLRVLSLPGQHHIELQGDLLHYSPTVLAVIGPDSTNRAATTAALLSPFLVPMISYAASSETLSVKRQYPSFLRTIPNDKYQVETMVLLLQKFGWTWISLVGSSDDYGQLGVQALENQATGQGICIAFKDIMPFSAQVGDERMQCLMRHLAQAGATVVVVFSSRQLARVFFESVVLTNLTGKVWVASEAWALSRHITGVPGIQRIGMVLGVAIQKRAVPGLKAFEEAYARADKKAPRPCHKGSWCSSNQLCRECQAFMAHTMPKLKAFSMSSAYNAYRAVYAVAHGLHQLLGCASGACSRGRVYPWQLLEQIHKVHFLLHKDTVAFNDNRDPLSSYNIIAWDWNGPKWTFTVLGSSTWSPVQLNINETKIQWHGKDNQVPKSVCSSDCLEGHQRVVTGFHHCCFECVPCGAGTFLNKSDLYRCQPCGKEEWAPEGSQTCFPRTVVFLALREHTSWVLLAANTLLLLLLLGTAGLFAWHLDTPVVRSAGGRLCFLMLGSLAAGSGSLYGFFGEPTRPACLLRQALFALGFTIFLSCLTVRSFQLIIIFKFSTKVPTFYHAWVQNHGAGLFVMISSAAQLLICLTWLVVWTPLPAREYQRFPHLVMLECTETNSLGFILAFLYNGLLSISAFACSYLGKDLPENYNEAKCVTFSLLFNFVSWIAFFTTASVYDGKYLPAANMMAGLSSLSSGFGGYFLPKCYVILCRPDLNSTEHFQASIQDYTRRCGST
T1 sequence (Q7RTX0 21-852): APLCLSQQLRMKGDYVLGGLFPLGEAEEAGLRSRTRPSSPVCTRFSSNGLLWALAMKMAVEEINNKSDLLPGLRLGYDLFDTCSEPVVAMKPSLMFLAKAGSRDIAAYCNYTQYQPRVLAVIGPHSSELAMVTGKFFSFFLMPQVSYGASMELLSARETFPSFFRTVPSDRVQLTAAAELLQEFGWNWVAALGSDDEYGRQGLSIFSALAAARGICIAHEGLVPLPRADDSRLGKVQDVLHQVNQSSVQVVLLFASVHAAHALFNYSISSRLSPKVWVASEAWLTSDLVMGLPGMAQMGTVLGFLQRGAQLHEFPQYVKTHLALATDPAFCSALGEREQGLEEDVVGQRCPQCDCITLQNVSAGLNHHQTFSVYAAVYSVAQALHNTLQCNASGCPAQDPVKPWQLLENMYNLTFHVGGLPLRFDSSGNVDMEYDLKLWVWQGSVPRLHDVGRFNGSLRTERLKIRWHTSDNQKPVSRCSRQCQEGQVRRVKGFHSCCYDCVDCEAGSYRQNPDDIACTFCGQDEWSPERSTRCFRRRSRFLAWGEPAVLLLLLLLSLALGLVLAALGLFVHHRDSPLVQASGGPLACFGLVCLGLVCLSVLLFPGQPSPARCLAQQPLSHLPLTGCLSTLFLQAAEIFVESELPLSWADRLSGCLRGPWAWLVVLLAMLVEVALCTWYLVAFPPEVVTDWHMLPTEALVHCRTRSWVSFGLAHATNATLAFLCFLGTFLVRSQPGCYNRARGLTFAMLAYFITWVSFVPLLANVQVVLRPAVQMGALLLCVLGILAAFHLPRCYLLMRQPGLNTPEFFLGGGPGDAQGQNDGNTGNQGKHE
Assay: in vitro cell-based assay having cells that express the T1R umami taste receptor (enhancement of MSG)
Conditions: for EC50: cells expressing T1R umami taste receptor, read-out: EC50 for enhancement of MSG binding
Procedure: Each of Compounds 101-183 was synthesized according to one of the general procedures set forth above in Examples 1. Thereafter, the compounds were tested in an in vitro cell-based assay having cells that express the T1R umami taste receptor. Dose-binding curves were recorded and the EC50 was determined for enhancement of MSG binding. Table 2 sets forth the calculated EC50 values for certain tested compounds as well as the MSG enhancement ratio at a particular concentration.

Structure (SMILES) | EC50 | MSG Enh. Ratio (compound at 50 μM) | further results
CCOC(=O)C[C@H](NC(=O)/C=C/c1ccccc1)C(=O)OCC [Compound 138, Diethyl cinnamoyl-L-aspartate] | > 50 µM | 2.0 @ | –
COC(=O)CC[C@H](NC(=O)/C=C/c1ccccc1)C(=O)OC [Compound 139, Dimethyl cinnamoyl-L-glutamate] | – | 3.82 @ | –
CCOC(=O)CC[C@H](NC(=O)/C=C/c1ccccc1)C(=O)OCC [Compound 140, Diethyl cinnamoyl-L-glutamate] | 12 µM | – | MSG Enh. Ratio (compound at 10 μM): 5.6 @
CCOC(=O)[C@H](Cc1ccccc1)NC(=O)/C=C/c1ccccc1 [Compound 141, Ethyl cinnamoyl-L-phenylalaninate] | – | – | MSG Enh. Ratio (compound at 10 μM): 5.5 @
COC(=O)[C@H](C)NC(=O)/C=C/c1ccc(OC)cc1 [Compound 142, Methyl (E)-(3-(4-methoxyphenyl)acryloyl)-L-alaninate] | > 50 µM | 3.3 @ | –
CCOC(=O)[C@@H](NC(=O)/C=C/c1ccccc1OC)C(C)C [Compound 143, Ethyl (E)-(3-(2-methoxyphenyl)acryloyl)-L-valinate] | 15 µM | – | MSG Enh. Ratio (compound at 10 μM): 4.4 @
COC(=O)[C@@H](CC(C)C)NC(=O)/C=C/c1ccc(OC)cc1 [Compound 144, Methyl (E)-(3-(4-methoxyphenyl)acryloyl)-D-leucinate] | 0.1 µM | – | –
CCOC(=O)[C@H](NC(=O)/C=C/c1ccc(OC)cc1)C(C)C [Compound 145, Ethyl (E)-(3-(4-methoxyphenyl)acryloyl)-D-valinate] | 1 µM | – | –
COC(=O)[C@H](Cc1ccccc1)NC(=O)/C=C/c1ccc(OC)cc1 [Compound 146, Methyl (E)-(3-(4-methoxyphenyl)acryloyl)-L-phenylalaninate] | 1 µM | – | MSG Enh. Ratio (compound at 0.3 μM): 6.4 @
CCOC(=O)[C@@H](NC(=O)/C=C/c1ccc(OC)cc1)C(C)C [Compound 147, Ethyl (E)-(3-(4-methoxyphenyl)acryloyl)-L-valinate] | 2.24 µM | – | MSG Enh. Ratio (compound at 0.3 μM): 3.0 @
CCOC(=O)[C@H](Cc1ccccc1)NC(=O)/C=C/c1ccc(OC)cc1 [Compound 148, Ethyl (E)-(3-(4-methoxyphenyl)acryloyl)-L-phenylalaninate] | 10.1 µM | – | MSG Enh. Ratio (compound at 1 μM): 3.5 @
COC(=O)[C@H](CC(C)C)NC(=O)/C=C/c1ccc(OC)cc1 [Compound 149, Methyl (E)-(3-(4-methoxyphenyl)acryloyl)-L-leucinate] | 11 µM | – | MSG Enh. Ratio (compound at 3 μM): 4.5 @
CCOC(=O)[C@@H](CC(C)C)NC(=O)/C=C/c1ccc(OC)cc1 [Compound 150, Ethyl (E)-(3-(4-methoxyphenyl)acryloyl)-D-leucinate] | 1 µM | – | –
CCOC(=O)CC[C@H](NC(=O)/C=C/c1ccc(OC)cc1)C(=O)OCC [Compound 151, Diethyl (E)-(3-(4-methoxyphenyl)acryloyl)-L-glutamate] | 2 µM | – | MSG Enh. Ratio (compound at 3 μM): 4.2 @
COC(=O)[C@H](Cc1ccccc1)NC(=O)/C=C/c1ccccc1OC [Compound 152, Methyl (E)-(3-(2-methoxyphenyl)acryloyl)-L-phenylalaninate] | 27 µM | – | MSG Enh. Ratio (compound at 10 μM): 2.8 @
CCOC(=O)[C@@H](NC(=O)/C=C/c1ccc(OCC)cc1)C(C)C [Compound 153, Ethyl (E)-(3-(4-ethoxyphenyl)acryloyl)-L-valinate] | 1 µM | – | MSG Enh. Ratio (compound at 0.3 μM): 7.4 @
CCOC(=O)[C@H](Cc1ccccc1)NC(=O)/C=C/c1ccc(OCC)cc1 [Compound 154, Ethyl (E)-(3-(4-ethoxyphenyl)acryloyl)-L-phenylalaninate] | 3 µM | – | MSG Enh. Ratio (compound at 3 μM): 2.0 @

Structure (SMILES) | EC50 | MSG Enh. Ratio (compound at 50 μM) | further results
CCOc1ccc(/C=C/C(=O)N[C@@H](Cc2ccccc2)C(=O)OC)cc1 [Compound 155, Methyl (E)-(3-(4-ethoxyphenyl)acryloyl)-L-phenylalaninate] | 1 µM | – | MSG Enh. Ratio (compound at 0.3 μM): 8.1 @
CCOC(=O)CC[C@H](NC(=O)/C=C/c1ccc(OCC)cc1)C(=O)OCC [Compound 156, Diethyl (E)-(3-(4-ethoxyphenyl)acryloyl)-L-glutamate] | 4 µM | – | –
COC(=O)[C@H](Cc1ccccc1)NC(=O)/C=C/c1cc(OC)ccc1OC [Compound 157, Methyl (E)-(3-(2,5-dimethoxyphenyl)acryloyl)-L-phenylalaninate] | > 50 µM | 3.1 @ | –
CCOC(=O)[C@H](Cc1ccccc1)NC(=O)/C=C/c1ccc(OC)c(OC)c1 [Compound 158, Ethyl (E)-(3-(3,4-dimethoxyphenyl)acryloyl)-L-phenylalaninate] | – | – | MSG Enh. Ratio (compound at 10 μM): 4.8 @
CCOC(=O)[C@@H](NC(=O)/C=C/c1ccc2c(c1)OCO2)C(C)C [Compound 159, Ethyl (E)-(3-(benzo[d][1,3]dioxol-5-yl)acryloyl)-L-valinate] | > 50 µM | 5.8 @ | –
CCOC(=O)[C@H](Cc1ccccc1)NC(=O)/C=C/c1ccc2c(c1)OCO2 [Compound 160, Ethyl (E)-(3-(benzo[d][1,3]dioxol-5-yl)acryloyl)-L-phenylalaninate] | > 50 µM | 3.9 @ | –
CCOC(=O)CC[C@H](NC(=O)/C=C/c1ccc2c(c1)OCO2)C(=O)OCC [Compound 161, Diethyl (E)-(3-(benzo[d][1,3]dioxol-5-yl)acryloyl)-L-glutamate] | > 20 µM | – | MSG Enh. Ratio (compound at 10 μM): 2.9 @
CCOC(=O)[C@H](CC(C)C)NC(=O)/C=C/c1ccc2c(c1)OCO2 [Compound 162, Ethyl (E)-(3-(benzo[d][1,3]dioxol-5-yl)acryloyl)-L-leucinate] | > 50 µM | 3.4 @ | –
CCOC(=O)[C@@H](NC(=O)/C=C/c1ccc2c(c1)OCO2)[C@@H](C)CC [Compound 163, Ethyl ((E)-3-(benzo[d][1,3]dioxol-5-yl)acryloyl)-L-isoleucinate] | > 50 µM | 2.4 @ | –
CCOC(=O)CC[C@H](NC(=O)/C=C/c1ccc(O)cc1)C(=O)OCC [Compound 164, Diethyl (E)-(3-(4-hydroxyphenyl)acryloyl)-L-glutamate] | > 50 µM | 4.2 @ | –
C=C(C)C1CC=C(C(=O)N[C@@H](Cc2ccccc2)C(=O)OC)CC1 (stereo partly drawn) [Compound 166, Methyl (4-(prop-1-en-2-yl)cyclohex-1-ene-1-carbonyl)-L-phenylalaninate] | > 50 µM | 4.6 @ | –
C/C=C/C(=O)N[C@@H](Cc1ccccc1)C(=O)OC [Compound 167, Methyl (E)-but-2-enoyl-L-phenylalaninate] | > 50 µM | 2.1 @ | –
CCOC(=O)[C@H](CC(C)C)NC(=O)/C=C/C(C)C [Compound 169, Ethyl (E)-(4-methylpent-2-enoyl)-L-leucinate] | 12.9 µM | – | MSG Enh. Ratio (compound at 3 μM): 4.2 @
CCOC(=O)[C@H](CCSC)NC(=O)/C=C/C(C)C [Compound 170, Ethyl (E)-(4-methylpent-2-enoyl)-L-methioninate] | – | – | MSG Enh. Ratio (compound at 10 μM): 3.5 @
CCOC(=O)[C@@H](CC(C)C)NC(=O)/C=C/C(C)C [Compound 171, Ethyl (E)-(4-methylpent-2-enoyl)-D-leucinate] | 3.34 µM | – | MSG Enh. Ratio (compound at 3 μM): 8.96 @
CCOC(=O)[C@H](Cc1ccccc1)NC(=O)/C=C/C(C)C [Compound 172, Ethyl (E)-(4-methylpent-2-enoyl)-L-phenylalaninate] | – | – | MSG Enh. Ratio (compound at 10 μM): 3.6 @
